{"source": "the supplement of paper PMC10307832", "test_in_all_cases": "relative viability (nuclei count vs DMSO), 5 days (fraction); higher = more cells survive", "key": {"ABC-1": {"system": "ABC-1", "procedure,_shortened": "(§1)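 Lung cancer cell lines were seeded in 1536-well plates and dosed by pin tool the next day, with either a single drug or a fixed anchor-drug dose combined with five library-drug doses (not always all listed) spaced in √10 steps. Five days later, one step fixed the cells and stained their nuclei (final 0.05% Triton X-100, 1% formaldehyde, 1 ug/ml Hoechst), and nuclei were counted on 4× images. Relative viability is the nuclei count in treated wells divided by the count in vehicle wells, and each value is the median of duplicate plates.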"}, "LXF-289": {"system": "LXF-289", "procedure,_shortened": "as §1"}, "NCI-H2347": {"system": "NCI-H2347", "procedure,_shortened": "as §1"}, "NCI-H1915": {"system": "NCI-H1915", "procedure,_shortened": "as §1"}, "NCI-H1437": {"system": "NCI-H1437", "procedure,_shortened": "as §1"}, "EKVX": {"system": "EKVX", "procedure,_shortened": "as §1"}, "HCC-366": {"system": "HCC-366", "procedure,_shortened": "as §1"}, "NCI-H2170": {"system": "NCI-H2170", "procedure,_shortened": "as §1"}, "NCI-H358": {"system": "NCI-H358", "procedure,_shortened": "as §1"}, "HCC-78": {"system": "HCC-78", "procedure,_shortened": "as §1"}, "HARA": {"system": "HARA", "procedure,_shortened": "as §1"}, "CAL-12T": {"system": "CAL-12T", "procedure,_shortened": "as §1"}, "UMC-11": {"system": "UMC-11", "procedure,_shortened": "as §1"}, "Calu-6": {"system": "Calu-6", "procedure,_shortened": "as §1"}, "LOU-NH91": {"system": "LOU-NH91", "procedure,_shortened": "as §1"}, "NCI-H1793": {"system": "NCI-H1793", "procedure,_shortened": "as §1"}, "HCC-827": {"system": "HCC-827", "procedure,_shortened": "as §1"}, "201T": {"system": "201T", "procedure,_shortened": "as §1"}, "NCI-H1734": {"system": "NCI-H1734", "procedure,_shortened": "as §1"}, "COR-L 105": {"system": "COR-L 105", "procedure,_shortened": "as §1"}, "EBC-1": {"system": "EBC-1", "procedure,_shortened": "as §1"}, "LU99A": {"system": "LU99A", "procedure,_shortened": "as §1"}}, "data": [{"smiles": "Nc1cccc2c1CN(C1CCC(=O)NC1=O)C2=O", "note": "(configuration not stated) [Lenalidomide] + CS(=O)(=O)N1CCN(Cc2cc3nc(-c4cccc5[nH]ncc45)nc(N4CCOCC4)c3s2)CC1 [Pictilisib] (partner 1 µM)", "values": [{"measurement": "relative viability", "setting": "ABC-1; first compound 0.253 µM", "result": 0.724}, {"measurement": "relative viability", "setting": "ABC-1; first compound 0.8 µM", "result": 0.626}, {"measurement": "relative viability", "setting": "ABC-1; first compound 2.53 µM", "result": 0.719}, {"measurement": "relative viability", "setting": "ABC-1; first compound 8 µM", "result": 0.629}, {"measurement": "relative viability", "setting": "LXF-289; first compound 0.253 µM", "result": 0.835}, {"measurement": "relative viability", "setting": "LXF-289; first compound 0.8 µM", "result": 0.827}, {"measurement": "relative viability", "setting": "LXF-289; first compound 2.53 µM", "result": 0.864}, {"measurement": "relative viability", "setting": "LXF-289; first compound 8 µM", "result": 0.845}, {"measurement": "relative viability", "setting": "NCI-H2347; first compound 0.253 µM", "result": 0.396}, {"measurement": "relative viability", "setting": "NCI-H2347; first compound 0.8 µM", "result": 0.634}, {"measurement": "relative viability", "setting": "NCI-H2347; first compound 2.53 µM", "result": 0.602}, {"measurement": "relative viability", "setting": "NCI-H2347; first compound 8 µM", "result": 0.49}, {"measurement": "relative viability", "setting": "NCI-H1915; first compound 0.253 µM", "result": 0.9}, {"measurement": "relative viability", "setting": "NCI-H1915; first compound 0.8 µM", "result": 0.793}, {"measurement": "relative viability", "setting": "NCI-H1915; first compound 2.53 µM", "result": 1}, {"measurement": "relative viability", "setting": "NCI-H1915; first compound 8 µM", "result": 0.857}, {"measurement": "relative viability", "setting": "NCI-H1437; first compound 0.253 µM", "result": 0.547}, {"measurement": "relative viability", "setting": "NCI-H1437; first compound 0.8 µM", "result": 0.591}, {"measurement": "relative viability", "setting": "NCI-H1437; first compound 2.53 µM", "result": 0.592}, {"measurement": "relative viability", "setting": "NCI-H1437; first compound 8 µM", "result": 0.344}, {"measurement": "relative viability", "setting": "EKVX; first compound 0.253 µM", "result": 0.456}, {"measurement": "relative viability", "setting": "EKVX; first compound 0.8 µM", "result": 0.39}, {"measurement": "relative viability", "setting": "EKVX; first compound 2.53 µM", "result": 0.401}, {"measurement": "relative viability", "setting": "EKVX; first compound 8 µM", "result": 0.366}, {"measurement": "relative viability", "setting": "HCC-366; first compound 0.253 µM", "result": 0.131}, {"measurement": "relative viability", "setting": "HCC-366; first compound 0.8 µM", "result": 0.108}, {"measurement": "relative viability", "setting": "HCC-366; first compound 2.53 µM", "result": 0.172}, {"measurement": "relative viability", "setting": "HCC-366; first compound 8 µM", "result": 0.157}, {"measurement": "relative viability", "setting": "NCI-H2170; first compound 0.253 µM", "result": 0.344}, {"measurement": "relative viability", "setting": "NCI-H2170; first compound 0.8 µM", "result": 0.264}, {"measurement": "relative viability", "setting": "NCI-H2170; first compound 2.53 µM", "result": 0.342}, {"measurement": "relative viability", "setting": "NCI-H2170; first compound 8 µM", "result": 0.259}, {"measurement": "relative viability", "setting": "NCI-H358; first compound 0.253 µM", "result": 0.399}, {"measurement": "relative viability", "setting": "NCI-H358; first compound 0.8 µM", "result": 0.428}, {"measurement": "relative viability", "setting": "NCI-H358; first compound 2.53 µM", "result": 0.384}, {"measurement": "relative viability", "setting": "NCI-H358; first compound 8 µM", "result": 0.302}, {"measurement": "relative viability", "setting": "HCC-78; first compound 0.253 µM", "result": 0.233}, {"measurement": "relative viability", "setting": "HCC-78; first compound 0.8 µM", "result": 0.185}, {"measurement": "relative viability", "setting": "HCC-78; first compound 2.53 µM", "result": 0.232}, {"measurement": "relative viability", "setting": "HCC-78; first compound 8 µM", "result": 0.174}, {"measurement": "relative viability", "setting": "HARA; first compound 0.253 µM", "result": 0.367}, {"measurement": "relative viability", "setting": "HARA; first compound 0.8 µM", "result": 0.327}, {"measurement": "relative viability", "setting": "HARA; first compound 2.53 µM", "result": 0.438}, {"measurement": "relative viability", "setting": "HARA; first compound 8 µM", "result": 0.206}, {"measurement": "relative viability", "setting": "CAL-12T; first compound 0.253 µM", "result": 0.406}, {"measurement": "relative viability", "setting": "CAL-12T; first compound 2.53 µM", "result": 0.561}, {"measurement": "relative viability", "setting": "CAL-12T; first compound 8 µM", "result": 0.358}, {"measurement": "relative viability", "setting": "UMC-11; first compound 0.253 µM", "result": 0.893}, {"measurement": "relative viability", "setting": "UMC-11; first compound 0.8 µM", "result": 0.512}, {"measurement": "relative viability", "setting": "UMC-11; first compound 2.53 µM", "result": 0.819}, {"measurement": "relative viability", "setting": "UMC-11; first compound 8 µM", "result": 0.627}, {"measurement": "relative viability", "setting": "Calu-6; first compound 0.253 µM", "result": 0.861}, {"measurement": "relative viability", "setting": "Calu-6; first compound 0.8 µM", "result": 1.01}, {"measurement": "relative viability", "setting": "Calu-6; first compound 2.53 µM", "result": 1.06}, {"measurement": "relative viability", "setting": "Calu-6; first compound 8 µM", "result": 0.969}, {"measurement": "relative viability", "setting": "LOU-NH91; first compound 0.253 µM", "result": 0.534}, {"measurement": "relative viability", "setting": "LOU-NH91; first compound 0.8 µM", "result": 0.451}, {"measurement": "relative viability", "setting": "LOU-NH91; first compound 2.53 µM", "result": 0.445}, {"measurement": "relative viability", "setting": "LOU-NH91; first compound 8 µM", "result": 0.502}, {"measurement": "relative viability", "setting": "NCI-H1793; first compound 0.253 µM", "result": 0.554}, {"measurement": "relative viability", "setting": "NCI-H1793; first compound 0.8 µM", "result": 0.289}, {"measurement": "relative viability", "setting": "NCI-H1793; first compound 2.53 µM", "result": 0.409}, {"measurement": "relative viability", "setting": "NCI-H1793; first compound 8 µM", "result": 0.228}, {"measurement": "relative viability", "setting": "HCC-827; first compound 0.253 µM", "result": 1.03}, {"measurement": "relative viability", "setting": "HCC-827; first compound 0.8 µM", "result": 1.11}, {"measurement": "relative viability", "setting": "HCC-827; first compound 2.53 µM", "result": 0.925}, {"measurement": "relative viability", "setting": "HCC-827; first compound 8 µM", "result": 0.834}, {"measurement": "relative viability", "setting": "201T; first compound 0.253 µM", "result": 0.72}, {"measurement": "relative viability", "setting": "201T; first compound 0.8 µM", "result": 0.532}, {"measurement": "relative viability", "setting": "201T; first compound 2.53 µM", "result": 0.678}, {"measurement": "relative viability", "setting": "201T; first compound 8 µM", "result": 0.603}, {"measurement": "relative viability", "setting": "NCI-H1734; first compound 0.253 µM", "result": 0.438}, {"measurement": "relative viability", "setting": "NCI-H1734; first compound 0.8 µM", "result": 0.489}, {"measurement": "relative viability", "setting": "NCI-H1734; first compound 2.53 µM", "result": 0.465}, {"measurement": "relative viability", "setting": "NCI-H1734; first compound 8 µM", "result": 0.329}, {"measurement": "relative viability", "setting": "COR-L 105; first compound 0.253 µM", "result": 0.278}, {"measurement": "relative viability", "setting": "COR-L 105; first compound 0.8 µM", "result": 0.398}, {"measurement": "relative viability", "setting": "COR-L 105; first compound 2.53 µM", "result": 0.554}, {"measurement": "relative viability", "setting": "COR-L 105; first compound 8 µM", "result": 0.363}, {"measurement": "relative viability", "setting": "EBC-1; first compound 0.253 µM", "result": 0.398}, {"measurement": "relative viability", "setting": "EBC-1; first compound 0.8 µM", "result": 0.323}, {"measurement": "relative viability", "setting": "EBC-1; first compound 2.53 µM", "result": 0.498}, {"measurement": "relative viability", "setting": "EBC-1; first compound 8 µM", "result": 0.512}, {"measurement": "relative viability", "setting": "LU99A; first compound 0.253 µM", "result": 0.31}, {"measurement": "relative viability", "setting": "LU99A; first compound 0.8 µM", "result": 0.324}, {"measurement": "relative viability", "setting": "LU99A; first compound 2.53 µM", "result": 0.371}, {"measurement": "relative viability", "setting": "LU99A; first compound 8 µM", "result": 0.238}]}]}
